Here are results for 3 molecules from patent publication US11197856B2, “Bicyclic compounds and methods for their use in treating autism” (priority 2013, dated 2021).

Structures are written as SMILES.

In one assay the test system is cerebellar explants. The assay is described as follows: Cerebellar explants, glutamate/3-nitropropionic acid neurotoxicity. The format is cell-based, Wistar rats. On the procedure: Cover slips were placed into a large Petri dish and washed in 70% alcohol for 5 minutes, then washed with Millipore H2O. The cover slips were air dried, and coated with Poly-D-Lysine (1 mg/ml stock solution in PBS, 90-100 μl) for 2 hours at 34° C.
Postnatal day 8 Wistar rats were used for the study. The rats were sacrificed and placed in ice for 1 minute, decapitated and the cerebellum removed and placed on ice. Cerebellum tissue was placed in 1 ml of 0.65% glucose-supplemented PBS (10 μl 65% stock D (+)glucose/1 ml PBS) in a large Petri dish, chopped up into smaller sections and triturated with a 1 ml insulin syringe via a 23 G (0.4 mm) needle, and then squirted back into the glucose solution in the large Petri dish. The tissue was sieved through (125 μm pore size gauze) and centrifuged (2 minutes at 60 g) twice to exchange the medium into serum-free BSA-supplemented START V medium (Biochrom, Germany). The second centrifugation step was done with 1 ml of START V medium. The microexplants were reconstituted into 500 μl of START V medium and put on ice.
Two hours after PDL-coating, the slides were washed with Millipore H2O and air dried. Each slide was placed into a small Petri dish (diameter: 35 mm) and 40 μl of START V/cell suspension was added. The tissue was incubated for 2 hours at 34° C. (settlement period). START V-medium (1 ml) was then added to the Petri dish and cultivated at 34° C. in the presence of 5% CO2 in air at 100% humidity for 48 hours.
For the study, certain explant cultures were exposed to vehicle (PBS) only. In the first study (Study 1) 10 μl of toxin 1 (L-glutamate—100 mM in Millipore water; final concentration; 1 mM) and 10 μl of toxin 2 (3-nitropropionic acid—50 mM—pH 7—in Millipore water, final concentration: 0.5 mM) was applied simultaneously with the drug to be tested ([…]). In each case, the drugs were left in contact with the explants for the duration of the study.
After explants were exposed to drugs for the study period, cells were then rinsed in PBS and then fixed in increasing concentrations of paraformaldehyde (500 μl of 0.4% PFA was applied; then 1.2% PFA; then 3% PFA and finally 4% PFA (each fixation step: 2-3 minutes). Finally, the microexplants were rinsed in PBS.
Neurons in the explants were then evaluated for morphology (presence of neurites) and counted as live cells per microscopic field. Four fields displaying highest cell density were counted per cover slip and the data presented as mean±standard error of the mean (SEM); n=4 each. Statistical significance was evaluated by using the non-paired Student's t-test.

Assay [1] has as its system animals with scopolamine-induced memory impairment. The assay is described as follows: Morris Water Maze (MWM) test with scopolamine-induced memory impairment. The format is in vivo, Wistar rats. The conditions noted are these: scopolamine 0.3 mg/kg i.p.; day 4 of acquisition. An excerpt:
The first part of the study involved acute testing of cG-2-AllylP in the Morris Water Maze Memory (MWM) model. The MWM test is one of the most frequently used tests for assessing spatial memory in rats and is well recognized to accurately predict effects of disease and treatment on spatial memory generally. Therefore, the MWM test reflects effects of disease and treatment in human subjects. The standard procedure for MWM was followed. We used a circular swimming pool (80 cm depth×150 cm diameter) filled with opaque water, with the temperature maintained at 20° C. […] On days 1-4 of the experiment rats underwent memory acquisition trials with 6 trials (60 seconds each) in each day of testing (habituation phase). Latency to reach the platform was recorded and the daily reduction of average latency was used to measure the capability to learn where the hidden platform was. […] Experimental groups are detailed in the Table 4 below. On […], the probe MWM test was performed with the platform removed. There were 6 trials, each of maximum duration of 60s, at least 3 min rest between trials). […] Data was collected and analysed using Any-maze (v4.2) software. The data generated from behavioural tests was analysed using one-way ANOVA for determining the difference between the aged-groups. […]

Regarding `C[C@@]12CCCN1C(=O)C1(CCCC1)NC2=O` [Cyclic cyclopentyl-G-2MeP, (8aS)-Methyl-spiro[cyclopentane-1,3(4H)-tetrahydropyrrolo[1,2-a]pyrazine]-1,4(2H)-dione], the “numbers of cells having neurites” value with cerebellar explants (administered simultaneously with glutamate) is recorded as “significantly increased the number of cells having neurites”. In addition, in the assay with cerebellar explants (low doses (cG-2-AllylP: 100 pm to 10 nm)), the glutamate-induced neurotoxicity result was “significant decrease in glutamate-induced neurotoxicity”.
As for `N[C@@H](CCC(=O)O)C(=O)O` [Glutamate, L-glutamate, reference compound], the “loss of cerebellar neurons having neurites” value in the assay on cerebellar explants (glutamate 1 mM vs vehicle-treated controls) is recorded as ~85%.
On to `CN1[C@@H]2C[C@@H](OC(=O)[C@H](CO)c3ccccc3)C[C@H]1[C@@H]1O[C@@H]12` [scopolamine, reference compound], for which, in assay [1], the time to platform entry was “approximately 208 % of control”.
